Columns and labels:
ISC-enriched organoids [1] = assay: Primary screen, 384-well 2.5-D organoid differentiation (ENR+CD, 6 days): basal lysozyme secretion (LYZ.NS); format: cell-based, murine; details: for Dose.FC.LYZ.NS (log 2 fold change, basal lysozyme secretion) / Dose.FC.LYZ.NS (log 2 fold change): vs plate median; for Dose.FC.LYZ.NS: FC vs plate median; for Z.LYZ.NS: standard z score; for SSMD.LYZ.NS: strictly standardized mean difference
Description: (§1) High-throughput screening.

ISC-enriched organoids [2] = assay: Primary screen, 384-well 2.5-D organoid differentiation (ENR+CD, 6 days): carbachol-induced lysozyme secretion (LYZ.S); format: cell-based, murine; details: for Dose.FC.LYZ.S (log 2 fold change, carbachol-induced lysozyme secretion) / Dose.FC.LYZ.S (log 2 fold change): vs plate median; for Dose.FC.LYZ.S / Z.LYZ.S / SSMD.LYZ.S / Dose.FC.LYZ.S (log 2 fold change): primary screen; for Dose.FC.LYZ.S: FC vs plate median; for Z.LYZ.S: standard z score; for SSMD.LYZ.S: strictly standardized mean difference
Description: as §1

ISC-enriched organoids [3] = assay: Primary screen, 384-well 2.5-D organoid differentiation (ENR+CD, 6 days, Target Selective Inhibitor Library, vs whole-plate median): ATP (CellTiter-Glo 3D, CTG); details: for Dose.FC.CTG (log 2 fold change, ATP) / Dose.FC.CTG (log 2 fold change): vs plate median; for Dose.FC.CTG: FC vs plate median; for Z.CTG: standard z score; for SSMD.CTG: strictly standardized mean difference
[4] = primary screen, 1st of the 4 dose lines of the treatment (dose not given)
[5] = primary screen, 2nd of the 4 dose lines of the treatment (dose not given)
[6] = primary screen, 3rd of the 4 dose lines of the treatment (dose not given)
[7] = primary screen, 4th of the 4 dose lines of the treatment (dose not given)
[8] = 1st of the 4 dose lines of the treatment (dose not given)
[9] = 2nd of the 4 dose lines of the treatment (dose not given)
[10] = 3rd of the 4 dose lines of the treatment (dose not given)
[11] = 4th of the 4 dose lines of the treatment (dose not given)

SMILES: Cl.N[C@@H]1C[C@H]1c1ccccc1 (racemic) [Tranylcypromine (2-PCPA) HCl]
- Z.LYZ.NS (standard z score) (ISC-enriched organoids [1]; dose 0.08 uM): 0.285
- Dose.FC.LYZ.NS (log 2 fold change, basal lysozyme secretion) (ISC-enriched organoids [1]; dose 0.08 uM): 0.033
- Z.LYZ.NS (standard z score) (ISC-enriched organoids [1]; dose 0.40 uM): −0.426
- Dose.FC.LYZ.NS (log 2 fold change, basal lysozyme secretion) (ISC-enriched organoids [1]; dose 0.40 uM): −0.049
- Z.LYZ.NS (standard z score) (ISC-enriched organoids [1]; dose 2.00 uM): 0.423
- Dose.FC.LYZ.NS (log 2 fold change, basal lysozyme secretion) (ISC-enriched organoids [1]; dose 2.00 uM): 0.049
- Z.LYZ.NS (standard z score) (ISC-enriched organoids [1]; dose 10.00 uM): −0.389
- Dose.FC.LYZ.NS (log 2 fold change, basal lysozyme secretion) (ISC-enriched organoids [1]; dose 10.00 uM): −0.045
- Dose.FC.LYZ.S (log 2 fold change, carbachol-induced lysozyme secretion) (ISC-enriched organoids [2]; dose 0.08 uM): 0.050
- Dose.FC.LYZ.S (log 2 fold change, carbachol-induced lysozyme secretion) (ISC-enriched organoids [2]; dose 0.40 uM): −0.037
- Dose.FC.LYZ.S (log 2 fold change, carbachol-induced lysozyme secretion) (ISC-enriched organoids [2]; dose 2.00 uM): 0.036
- Dose.FC.LYZ.S (log 2 fold change, carbachol-induced lysozyme secretion) (ISC-enriched organoids [2]; dose 10.00 uM): −0.096
- Z.CTG (standard z score) (ISC-enriched organoids [3]; dose 0.08 uM): −0.153
- Dose.FC.CTG (log 2 fold change, ATP) (ISC-enriched organoids [3]; dose 0.08 uM): −0.064
- Z.CTG (standard z score) (ISC-enriched organoids [3]; dose 0.40 uM): 0.148
- Dose.FC.CTG (log 2 fold change, ATP) (ISC-enriched organoids [3]; dose 0.40 uM): 0.062
- Z.CTG (standard z score) (ISC-enriched organoids [3]; dose 2.00 uM): 0.128
- Dose.FC.CTG (log 2 fold change, ATP) (ISC-enriched organoids [3]; dose 2.00 uM): 0.053
- Z.CTG (standard z score) (ISC-enriched organoids [3]; dose 10.00 uM): −1.274
- Dose.FC.CTG (log 2 fold change, ATP) (ISC-enriched organoids [3]; dose 10.00 uM): −0.533

SMILES: CCCCc1nc(Cl)c(CO)n1Cc1ccc(-c2ccccc2-c2nnn[n-]2)cc1.[K+] [Losartan Potassium (DuP 753)]
- Dose.FC.LYZ.NS (ISC-enriched organoids [1]; Dose 0.08 uM, primary screen): 0.052 log 2 fold change
- Z.LYZ.NS (ISC-enriched organoids [1]; Dose 0.08 uM, primary screen): 0.449
- Dose.FC.LYZ.NS (ISC-enriched organoids [1]; Dose 0.40 uM, primary screen): 0.038 log 2 fold change
- Z.LYZ.NS (ISC-enriched organoids [1]; Dose 0.40 uM, primary screen): 0.329
- Dose.FC.LYZ.NS (ISC-enriched organoids [1]; Dose 2.00 uM, primary screen): −0.042 log 2 fold change
- Z.LYZ.NS (ISC-enriched organoids [1]; Dose 2.00 uM, primary screen): −0.362
- Dose.FC.LYZ.NS (ISC-enriched organoids [1]; Dose 10.00 uM, primary screen): 0.062 log 2 fold change
- Z.LYZ.NS (ISC-enriched organoids [1]; Dose 10.00 uM, primary screen): 0.540
- SSMD.LYZ.NS (ISC-enriched organoids [1]; [4]): 0.273
- SSMD.LYZ.NS (ISC-enriched organoids [1]; [5]): 0.263
- SSMD.LYZ.NS (ISC-enriched organoids [1]; [6]): −0.341
- SSMD.LYZ.NS (ISC-enriched organoids [1]; [7]): 0.423
- Dose.FC.LYZ.S (ISC-enriched organoids [2]; Dose 0.08 uM): −0.017 log 2 fold change
- Dose.FC.LYZ.S (ISC-enriched organoids [2]; Dose 0.40 uM): 0.027 log 2 fold change
- Dose.FC.LYZ.S (ISC-enriched organoids [2]; Dose 2.00 uM): −0.080 log 2 fold change
- Dose.FC.LYZ.S (ISC-enriched organoids [2]; Dose 10.00 uM): −0.025 log 2 fold change
- Z.LYZ.S (ISC-enriched organoids [2]; [8]): −0.112
- Z.LYZ.S (ISC-enriched organoids [2]; [9]): 0.173
- Z.LYZ.S (ISC-enriched organoids [2]; [10]): −0.519
- Z.LYZ.S (ISC-enriched organoids [2]; [11]): −0.164
- SSMD.LYZ.S (ISC-enriched organoids [2]; [8]): −0.104
- SSMD.LYZ.S (ISC-enriched organoids [2]; [9]): 0.194
- SSMD.LYZ.S (ISC-enriched organoids [2]; [10]): −0.616
- SSMD.LYZ.S (ISC-enriched organoids [2]; [11]): −0.185
- Dose.FC.CTG (ISC-enriched organoids [3]; Dose 0.08 uM, primary screen): −0.152 log 2 fold change
- Z.CTG (ISC-enriched organoids [3]; Dose 0.08 uM, primary screen): −0.362
- Dose.FC.CTG (ISC-enriched organoids [3]; Dose 0.40 uM, primary screen): −0.175 log 2 fold change
- Z.CTG (ISC-enriched organoids [3]; Dose 0.40 uM, primary screen): −0.418
- Dose.FC.CTG (ISC-enriched organoids [3]; Dose 2.00 uM, primary screen): −0.081 log 2 fold change
- Z.CTG (ISC-enriched organoids [3]; Dose 2.00 uM, primary screen): −0.193
- Dose.FC.CTG (ISC-enriched organoids [3]; Dose 10.00 uM, primary screen): −0.137 log 2 fold change
- Z.CTG (ISC-enriched organoids [3]; Dose 10.00 uM, primary screen): −0.328
- SSMD.CTG (ISC-enriched organoids [3]; [4]): −0.338
- SSMD.CTG (ISC-enriched organoids [3]; [5]): −0.304
- SSMD.CTG (ISC-enriched organoids [3]; [6]): −0.274
- SSMD.CTG (ISC-enriched organoids [3]; [7]): −0.390

SMILES: O=C(c1cncc(Br)c1)N1CCC(N2CCCC2)CC1 [UNC669]
- Z.LYZ.NS (standard z score) (ISC-enriched organoids [1]; dose 0.08 uM): 0.578
- Dose.FC.LYZ.NS (log 2 fold change, basal lysozyme secretion) (ISC-enriched organoids [1]; dose 0.08 uM): 0.066
- Z.LYZ.NS (standard z score) (ISC-enriched organoids [1]; dose 0.40 uM): −0.048
- Dose.FC.LYZ.NS (log 2 fold change, basal lysozyme secretion) (ISC-enriched organoids [1]; dose 0.40 uM): −0.006
- Z.LYZ.NS (standard z score) (ISC-enriched organoids [1]; dose 2.00 uM): 0.606
- Dose.FC.LYZ.NS (log 2 fold change, basal lysozyme secretion) (ISC-enriched organoids [1]; dose 2.00 uM): 0.070
- Z.LYZ.NS (standard z score) (ISC-enriched organoids [1]; dose 10.00 uM): 0.249
- Dose.FC.LYZ.NS (log 2 fold change, basal lysozyme secretion) (ISC-enriched organoids [1]; dose 10.00 uM): 0.029
- Dose.FC.LYZ.S (log 2 fold change, carbachol-induced lysozyme secretion) (ISC-enriched organoids [2]; dose 0.08 uM): 0.047
- Dose.FC.LYZ.S (log 2 fold change, carbachol-induced lysozyme secretion) (ISC-enriched organoids [2]; dose 0.40 uM): −0.029
- Dose.FC.LYZ.S (log 2 fold change, carbachol-induced lysozyme secretion) (ISC-enriched organoids [2]; dose 2.00 uM): 0.025
- Dose.FC.LYZ.S (log 2 fold change, carbachol-induced lysozyme secretion) (ISC-enriched organoids [2]; dose 10.00 uM): 0.002
- Z.CTG (standard z score) (ISC-enriched organoids [3]; dose 0.08 uM): −0.226
- Dose.FC.CTG (log 2 fold change, ATP) (ISC-enriched organoids [3]; dose 0.08 uM): −0.095
- Z.CTG (standard z score) (ISC-enriched organoids [3]; dose 0.40 uM): 0.228
- Dose.FC.CTG (log 2 fold change, ATP) (ISC-enriched organoids [3]; dose 0.40 uM): 0.096
- Z.CTG (standard z score) (ISC-enriched organoids [3]; dose 2.00 uM): −0.561
- Dose.FC.CTG (log 2 fold change, ATP) (ISC-enriched organoids [3]; dose 2.00 uM): −0.235
- Z.CTG (standard z score) (ISC-enriched organoids [3]; dose 10.00 uM): 0.174
- Dose.FC.CTG (log 2 fold change, ATP) (ISC-enriched organoids [3]; dose 10.00 uM): 0.073

SMILES: O=C(Nc1ccccc1-c1cn2c(CN3CCNCC3)csc2n1)c1cnc2ccccc2n1 [SRT1720]
- Z.LYZ.NS (standard z score) (ISC-enriched organoids [1]; Dose 0.08 uM, primary screen): 1.495
- Dose.FC.LYZ.NS (log 2 fold change) (ISC-enriched organoids [1]; Dose 0.08 uM, primary screen): 0.172
- Z.LYZ.NS (standard z score) (ISC-enriched organoids [1]; Dose 0.40 uM, primary screen): 0.972
- Dose.FC.LYZ.NS (log 2 fold change) (ISC-enriched organoids [1]; Dose 0.40 uM, primary screen): 0.112
- Z.LYZ.NS (standard z score) (ISC-enriched organoids [1]; Dose 2.00 uM, primary screen): 0.613
- Dose.FC.LYZ.NS (log 2 fold change) (ISC-enriched organoids [1]; Dose 2.00 uM, primary screen): 0.070
- Z.LYZ.NS (standard z score) (ISC-enriched organoids [1]; Dose 10.00 uM, primary screen): −0.906
- Dose.FC.LYZ.NS (log 2 fold change) (ISC-enriched organoids [1]; Dose 10.00 uM, primary screen): −0.104
- Dose.FC.LYZ.S (log 2 fold change) (ISC-enriched organoids [2]; Dose 0.08 uM): 0.190
- Dose.FC.LYZ.S (log 2 fold change) (ISC-enriched organoids [2]; Dose 0.40 uM): 0.099
- Dose.FC.LYZ.S (log 2 fold change) (ISC-enriched organoids [2]; Dose 2.00 uM): 0.051
- Dose.FC.LYZ.S (log 2 fold change) (ISC-enriched organoids [2]; Dose 10.00 uM): −0.193
- Z.CTG (standard z score) (ISC-enriched organoids [3]; Dose 0.08 uM, primary screen): 1.264
- Dose.FC.CTG (log 2 fold change) (ISC-enriched organoids [3]; Dose 0.08 uM, primary screen): 0.529
- Z.CTG (standard z score) (ISC-enriched organoids [3]; Dose 0.40 uM, primary screen): 0.940
- Dose.FC.CTG (log 2 fold change) (ISC-enriched organoids [3]; Dose 0.40 uM, primary screen): 0.394
- Z.CTG (standard z score) (ISC-enriched organoids [3]; Dose 2.00 uM, primary screen): 0.810
- Dose.FC.CTG (log 2 fold change) (ISC-enriched organoids [3]; Dose 2.00 uM, primary screen): 0.339
- Z.CTG (standard z score) (ISC-enriched organoids [3]; Dose 10.00 uM, primary screen): −2.427
- Dose.FC.CTG (log 2 fold change) (ISC-enriched organoids [3]; Dose 10.00 uM, primary screen): −1.016

From patent US20230398130A1, “METHODS AND COMPOSITIONS FOR DIFFERENTIATING STEM CELLS” (Massachusetts Institute of Technology, priority 2020, published 2023)
